From US6737383B1, “Herbicidal oxadiazolidines” (priority 1999, dated 2004)

What was measured:
bedstraw = test: Test B pre/postemergence bedstraw; assay type: in vivo, Galium aparine
Summary of the method: (§1)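 Herbicidal effect was estimated by eye on a ten-point control scale after plants spent twelve to sixteen days in a greenhouse following soil or foliar treatment. Foliar sprays targeted plants at one to four leaves; all doses were formulated in a non-phytotoxic solvent with surfactant.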

surinam grass = test: Test B pre/postemergence surinam grass; assay type: in vivo, Brachiaria decumbens
Summary of the method: as §1

cocklebur = test: Test B pre/postemergence cocklebur; assay type: in vivo, Xanthium strumarium
Summary of the method: as §1

corn = test: Test B pre/postemergence corn; assay type: in vivo, Zea mays
Summary of the method: as §1

giant foxtail = test: Test B pre/postemergence giant foxtail; assay type: in vivo, Setaria faberii
Summary of the method: as §1

pigweed = test: Test B pre/postemergence pigweed; assay type: in vivo, Amaranthus retroflexus
Summary of the method: as §1

rape = test: Test B pre/postemergence rape; assay type: in vivo, Brassica napus
Summary of the method: as §1

soybean = test: Test B pre/postemergence soybean; assay type: in vivo, Glycine max
Summary of the method: as §1

sugar beet = test: Test B pre/postemergence sugar beet; assay type: in vivo, Beta vulgaris
Summary of the method: as §1

velvetleaf = test: Test B pre/postemergence velvetleaf; assay type: in vivo, Abutilon theophrasti
Summary of the method: as §1

wheat = test: Test B pre/postemergence wheat; assay type: in vivo, Triticum aestivum
Summary of the method: as §1

wild oat = test: Test B pre/postemergence wild oat; assay type: in vivo, Avena fatua
Summary of the method: as §1

purple nutsedge = test: Test B pre/postemergence purple nutsedge; assay type: in vivo, Cyperus rotundus
Summary of the method: as §1

rice = test: Test B flood test rice; assay type: in vivo, Oryza sativa
Summary of the method: (§2)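 Flood test on plants grown to the 2-leaf stage; treated plants kept in greenhouse twelve to sixteen days, then visually rated against controls on a 0 (no effect) to 10 (complete control) scale.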

smallflower flatsedge = test: Test B flood test smallflower flatsedge; assay type: in vivo, Cyperus difformis
Summary of the method: as §2

duck salad = test: Test B flood test duck salad; assay type: in vivo, Heteranthera limosa
Summary of the method: as §2

[1] = Preemergence, Rate 62 g/ha, scale of 0 to 10 where 0 is no effect and 10 is complete control
[2] = Preemergence, Rate 250 g/ha, scale of 0 to 10 where 0 is no effect and 10 is complete control
[3] = Preemergence, Rate 500 g/ha, scale of 0 to 10 where 0 is no effect and 10 is complete control
[4] = Rate 62 g/ha, Postemergence, scale of 0 to 10 where 0 is no effect and 10 is complete control
[5] = Rate 125 g/ha, Postemergence, scale 0 to 10
[6] = Rate 125 g/ha, Preemergence, scale of 0 to 10 where 0 is no effect and 10 is complete control
[7] = Rate 500 g/ha, Postemergence, scale 0 to 10
[8] = Rate 62 g/ha, headed Pre-emergence (flood test species), scale 0 to 10 (0 no effect, 10 complete control)
[9] = Rate 125 g/ha, Pre-emergence, flood test species, scale 0 to 10 where 0 is no effect and 10 is complete control
[10] = Rate 250 g/ha, Pre-emergence, flood-test species, scale 0 to 10, 0 is no effect, 10 is complete control
[11] = Rate 500 g/ha, Pre-emergence, flood test species, scale 0 to 10 (0 no effect, 10 complete control)

CC(C)N(C(=O)n1oc(=O)n(CCC(F)=C(F)F)c1=O)c1ccc(F)cc1 [Compound 218]
Bedstraw plant response rating (bedstraw; [1]): 0
Bedstraw plant response rating (bedstraw; [2]): 0
Plant response rating, Bedstraw (bedstraw; [3]): 3
Bedstraw plant response rating (bedstraw; [4]): 6
Bedstraw plant response rating (bedstraw; [5]): 8
Bedstraw plant response rating (bedstraw; [6]): 0
Bedstraw plant response rating (bedstraw; [7]): 8
B. signalgrass plant response rating (surinam grass; [1]): 0
B. signalgrass plant response rating (surinam grass; Preemergence, Rate 250 g/ha, scale 0 to 10, 0 is no effect, 10 is complete control): 6
Plant response rating, B. signalgrass (surinam grass; [3]): 7
B. signalgrass plant response rating (surinam grass; [4]): 0
B. signalgrass plant response rating (surinam grass; Rate 125 g/ha, Postemergence, scale 0 (no effect) to 10 (complete control)): 0
B. signalgrass plant response rating (surinam grass; [6]): 4
Plant response rating (0 to 10; 0 is no effect, 10 is complete control), B. signalgrass (surinam grass; Rate 250 g/ha, Postemergence): 3
B. signalgrass plant response rating (surinam grass; Rate 500 g/ha, Postemergence, scale 0 to 10, 0 no effect, 10 complete control): 7
Cocklebur plant response rating (cocklebur; [1]): 0
Cocklebur plant response rating (cocklebur; [2]): 0
Plant response rating, Cocklebur (cocklebur; [3]): 0
Cocklebur plant response rating (cocklebur; [4]): 0
Cocklebur plant response rating (cocklebur; [5]): 0
Cocklebur plant response rating (cocklebur; [6]): 0
Plant response rating (0 to 10; 0 is no effect, 10 is complete control), Cocklebur (cocklebur; Rate 250 g/ha, Postemergence): 3
Cocklebur plant response rating (cocklebur; [7]): 4
Corn plant response rating (corn; [1]): 0
Corn plant response rating (corn; [2]): 0
Plant response rating, Corn (corn; [3]): 6
Corn plant response rating (corn; [4]): 0
Corn plant response rating (corn; [5]): 0
Corn plant response rating (corn; [6]): 0
Plant response rating (0 to 10; 0 is no effect, 10 is complete control), Corn (corn; Rate 250 g/ha, Postemergence): 0
Corn plant response rating (corn; [7]): 0
Giant foxtail plant response rating (giant foxtail; [1]): 9
Giant foxtail plant response rating (giant foxtail; [2]): 10
Plant response rating, Giant foxtail (giant foxtail; [3]): 10
Giant foxtail plant response rating (giant foxtail; [4]): 1
Giant foxtail plant response rating (giant foxtail; [5]): 5
Giant foxtail plant response rating (giant foxtail; [6]): 9
Plant response rating (0 to 10; 0 is no effect, 10 is complete control), Giant foxtail (giant foxtail; Rate 250 g/ha, Postemergence): 7
Giant foxtail plant response rating (giant foxtail; [7]): 8
Redroot pigweed plant response rating (pigweed; [1]): 6
Redroot pigweed plant response rating (pigweed; [2]): 8
Plant response rating, Redroot pigweed (pigweed; [3]): 10
Redroot pigweed plant response rating (pigweed; [4]): 0
Redroot pigweed plant response rating (pigweed; [5]): 1
Redroot pigweed plant response rating (pigweed; [6]): 1
Plant response rating (0 to 10; 0 is no effect, 10 is complete control), Redroot pigweed (pigweed; Rate 250 g/ha, Postemergence): 3
Redroot pigweed plant response rating (pigweed; [7]): 7
Rape plant response rating (rape; [1]): 0
Rape plant response rating (rape; [2]): 0
Plant response rating, Rape (rape; [3]): 2
Rape plant response rating (rape; [4]): 0
Rape plant response rating (rape; [5]): 1
Rape plant response rating (rape; [6]): 0
Plant response rating (0 to 10; 0 is no effect, 10 is complete control), Rape (rape; Rate 250 g/ha, Postemergence): 6
Rape plant response rating (rape; [7]): 7
Soybean plant response rating (soybean; [1]): 0
Soybean plant response rating (soybean; [2]): 2
Plant response rating, Soybean (soybean; [3]): 6
Soybean plant response rating (soybean; [4]): 3
Soybean plant response rating (soybean; [5]): 4
Soybean plant response rating (soybean; [6]): 2
Plant response rating (0 to 10; 0 is no effect, 10 is complete control), Soybean (soybean; Rate 250 g/ha, Postemergence): 6
Soybean plant response rating (soybean; [7]): 7
Sugarbeets plant response rating (sugar beet; [1]): 0
Sugarbeets plant response rating (sugar beet; [2]): 6
Plant response rating, Sugarbeets (sugar beet; [3]): 7
Sugarbeets plant response rating (sugar beet; [4]): 2
Sugarbeets plant response rating (sugar beet; [5]): 2
Sugarbeets plant response rating (sugar beet; [6]): 1
Plant response rating (0 to 10; 0 is no effect, 10 is complete control), Sugarbeets (sugar beet; Rate 250 g/ha, Postemergence): 2
Sugarbeets plant response rating (sugar beet; [7]): 4
Velvetleaf plant response rating (velvetleaf; [1]): 0
Velvetleaf plant response rating (velvetleaf; [2]): 0
Plant response rating, Velvetleaf (velvetleaf; [3]): 2
Velvetleaf plant response rating (velvetleaf; [4]): 0
Velvetleaf plant response rating (velvetleaf; [5]): 0
Velvetleaf plant response rating (velvetleaf; [6]): 0
Plant response rating (0 to 10; 0 is no effect, 10 is complete control), Velvetleaf (velvetleaf; Rate 250 g/ha, Postemergence): 2
Wheat plant response rating (wheat; [1]): 0
Wheat plant response rating (wheat; [2]): 0
Plant response rating, Wheat (wheat; [3]): 3
Wheat plant response rating (wheat; [4]): 0
Wheat plant response rating (wheat; [5]): 0
Wheat plant response rating (wheat; [6]): 0
Plant response rating (0 to 10; 0 is no effect, 10 is complete control), Wheat (wheat; Rate 250 g/ha, Postemergence): 0
Wild oats plant response rating (wild oat; [1]): 5
Wild oats plant response rating (wild oat; [2]): 7
Plant response rating, Wild oats (wild oat; [3]): 9
Wild oats plant response rating (wild oat; [4]): 0
Wild oats plant response rating (wild oat; [5]): 0
Wild oats plant response rating (wild oat; [6]): 6
Plant response rating (0 to 10; 0 is no effect, 10 is complete control), Wild oats (wild oat; Rate 250 g/ha, Postemergence): 1
Plant response rating, Nutsedge (purple nutsedge; [3]): 0
Nutsedge plant response rating (purple nutsedge; [4]): 0
Nutsedge plant response rating (purple nutsedge; [5]): 0
Plant response rating (0 to 10; 0 is no effect, 10 is complete control), Nutsedge (purple nutsedge; Rate 250 g/ha, Postemergence): 0
Nutsedge plant response rating (purple nutsedge; [7]): 0
Rice plant response rating (rice; [8]): 0
Rice plant response rating (rice; [9]): 0
Rice plant response rating (rice; [10]): 0
Rice plant response rating (rice; [11]): 0
S. Flatsedge plant response rating (smallflower flatsedge; [8]): 0
S. Flatsedge plant response rating (smallflower flatsedge; [9]): 0
S. Flatsedge plant response rating (smallflower flatsedge; [10]): 0
S. Flatsedge plant response rating (smallflower flatsedge; [11]): 0
Ducksalad plant response rating (duck salad; [8]): 0
Ducksalad plant response rating (duck salad; [9]): 0
Ducksalad plant response rating (duck salad; [10]): 0
Ducksalad plant response rating (duck salad; [11]): 0
